Test results: patent US20070010537A1, “Fused pyramidine derivative and use thereof” (priority 2004, published 2007)
Counter-ions that a name gives are not always drawn.

Target: T1, human GnRH receptor (Homo sapiens, UniProt P30968)
T1 construct: expressed in transfected cells; host or cells: CHO (Chinese Hamster Ovary) cells
T1 sequence (P30968 1-328): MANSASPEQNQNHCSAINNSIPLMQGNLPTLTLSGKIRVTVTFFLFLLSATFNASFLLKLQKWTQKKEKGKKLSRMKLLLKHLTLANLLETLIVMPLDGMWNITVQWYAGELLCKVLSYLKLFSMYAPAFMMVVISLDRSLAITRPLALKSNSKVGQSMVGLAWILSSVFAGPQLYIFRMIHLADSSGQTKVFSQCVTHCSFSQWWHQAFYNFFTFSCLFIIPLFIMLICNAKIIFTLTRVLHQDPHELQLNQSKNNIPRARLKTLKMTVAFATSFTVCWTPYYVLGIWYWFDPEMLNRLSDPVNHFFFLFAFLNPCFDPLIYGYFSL
Test: 125I-leuprorelin binding assay, human GnRH receptor CHO cell membrane fraction
Conditions: 10 nM of the testing compound, room temperature for 1 hour, read-out: Binding inhibitory ratio (%)
Experimental: (1) Production of ^125I-Leuprorelin
10 μL of a 3×10^−4 M aqueous solution of leuprorelin and 10 μL of 0.01 mg/mL lactoperoxidase were placed in a tube, and 10 μL (37 MBq) of a Na^125I solution was added thereto. After stirring, 10 μL of 0.001% H2O2 was added to allow the mixture to undergo a reaction at room temperature for 20 minutes. 700 μL of a 0.05% TFA solution was added to stop the reaction, and purification by reversed phase HPLC was carried out. The conditions for HPLC are described below. ^125I-leuprorelin was eluted at a retention time of 26 to 27 minutes.
(2) Production of CHO (Chinese Hamster Ovary) Cell Membrane Fraction Containing Human GnRH Receptor
Human GnRH receptor-expressing CHO cells were cultured until the cells were reached a 90% confluent state in a T-150 flask. The cells were separated using 0.02% EDTA-PBS and were centrifuged at 500×g for 5 minutes. A homogenate buffer for cells (10 mM NaHCO3, 1 mM EDTA, 1 mM PMSF, 0.5 μg/mL Pepstatin, 2 μg/mL Leupeptin, pH 7.4) was added to the cell pellet, and the mixture was homogenized with a Polytron homogenizer. After centrifugation of the homogenate at 4° C. and at 1000×g for 10 minutes, the supernatant was placed in an ultracentrifuge tube and was centrifuged at 4° C. and at 49,300×g for 1 hour to obtain a precipitate of a membrane fraction. This precipitate was suspended in an assay buffer (50 mM Tris-HCl, 150 mM NaCl, 5 mM EDTA, pH 7.4) and then dispensed and stored at −80° C., so that the suspension can be thawed every time it is taken for use.
(3) Measurement of the Binding Inhibitory Rate of 125I-Leuprorelin
A ^125I-leuprorelin binding assay was carried out using 200 μL of an assay buffer containing 10 μg of human GnRH receptor membrane fraction, […] of ^125I-leuprorelin and 10 nM of the testing compound.
The non-specific binding radioactivity was measured in the presence of 1 μM of non-labeled leuprorelin. After leaving the mixture to stand at room temperature for 1 hour, 125I-leuprorelin was captured on a GF/C filter (PerkinElmer, Inc.), and the filter was washed with ice-cold 50 mM Tris-HCl (pH 7.4) using a cell harvester. After drying the filter, a liquid scintillation cocktail for microplate was added, and the membrane-bound radioactivity was measured using a TopCount.
The value of (TB-SB)/(TB-NSB)×100 (SB: radioactivity upon addition of the compound, TB: maximum binding radioactivity, NSB: non-specific binding radioactivity) was calculated to determine the binding inhibitory rate in the presence of 10 nM of each testing material.

| Compound | inhibition at 0.01 µM |
| --- | --- |
| O=c1[nH]c2ccccc2c(=O)n1-c1cc(S(=O)(=O)N2CCCc3ccccc32)ccc1Cl [Example 6(4), 3-(2-Chloro-5-(3,4-dihydroquinolin-1(2H)-ylsulfonyl)phenyl)quinazoline-2,4(1H,3H)-dione] | 88.5% |
| O=c1[nH]c2ccccc2c(=O)n1-c1cc(S(=O)(=O)N2CCCCc3ccccc32)ccc1Cl [Example 7(5), 3-(2-Chloro-5-(2,3,4,5-tetrahydro-1H-1-benzazepin-1-ylsulfonyl)phenyl)-2,4(1H,3H)-quinazolinedione] | 95.6% |
| O=c1[nH]c2ccccc2c(=O)n1-c1cc(S(=O)(=O)N2CCCOc3ccccc32)ccc1Cl [Example 7(8), 3-(2-Chloro-5-(3,4-dihydro-1,5-benzoxazepin-5(2H)-ylsulfonyl)phenyl)-2,4(1H,3H)-quinazolinedione] | 87.6% |
| O=c1[nH]c2ccccc2c(=O)n1-c1cc(S(=O)(=O)N2CCCc3ccccc32)ccc1F [Example 7(22), 3-[5-(3,4-Dihydroquinolin-1(2H)-ylsulfonyl)-2-fluorophenyl]quinazoline-2,4(1H,3H)-dione] | 75.5% |
| O=c1[nH]c2ccccc2c(=O)n1-c1cc(S(=O)(=O)N2CCCCc3sccc32)ccc1Cl [Example 7(70), 3-[2-Chloro-5-(5,6,7,8-tetrahydro-4H-thieno[3,2-b]azepin-4-ylsulfonyl)phenyl]quinazoline-2,4(1H,3H)-dione] | 94.5% |
| N=c1c2ccccc2[nH]c(=O)n1-c1cc(S(=O)(=O)N2CCCc3ccccc32)ccc1Cl [Example 8(1), 3-(2-Chloro-5-(3,4-dihydro-1(2H)-quinolinylsulfonyl)phenyl)-4-imino-3,4-dihydro-2(1H)-quinazoline trifluoroacetate] | 91.7% |
| CN(c1ccccc1)S(=O)(=O)c1ccc(Cl)c(-n2c(=O)[nH]c3ccccc3c2=N)c1 [Example 8, 4-Chloro-3-(4-imino-2-oxo-1,4-dihydro-3(2H)-quinazolinyl)-N-methyl-N-phenylbenzenesulfonamide trifluoroacetate] | 84.7% |
| CN(C(=O)c1ccc(Cl)c(-n2c(=O)[nH]c3ccccc3c2=O)c1)c1ccccc1 [Example 14, 4-Chloro-3-(2,4-dioxo-1,4-dihydroquinazolin-3(2H)-yl)-N-methyl-N-phenylbenzamide] | 88.9% |
| CN(C(=O)c1cc(-n2c(=O)[nH]c3cccc(CO)c3c2=O)c(Cl)s1)c1ccccc1 [Example 21(12), 5-Chloro-4-[5-(hydroxymethyl)-2,4-dioxo-1,4-dihydroquinazolin-3(2H)-yl]-N-methyl-N-phenylthiophene-2-carboxamide] | 84.2% |
| COC(=O)c1cccc2[nH]c(=O)n(-c3cc(S(=O)(=O)N4CCCc5ccccc54)ccc3Cl)c(=O)c12 [Example 30, Methyl 3-[2-chloro-5-(3,4-dihydroquinolin-1(2H)-ylsulfonyl)phenyl]-2,4-dioxo-1,2,3,4-tetrahydroquinazoline-5-carboxylate] | 98% |
| O=C(O)c1cccc2[nH]c(=O)n(-c3cc(S(=O)(=O)N4CCCc5ccccc54)ccc3Cl)c(=O)c12 [Example 31, 3-[2-Chloro-5-(3,4-dihydroquinolin-1(2H)-ylsulfonyl)phenyl]-2,4-dioxo-1,2,3,4-tetrahydroquinazoline-5-carboxylic acid] | 98.2% |
| O=c1[nH]c2cccc(CO)c2c(=O)n1-c1cc(S(=O)(=O)N2CCCc3ccccc32)ccc1Cl [Example 36, 3-[2-Chloro-5-(3,4-dihydroquinolin-1(2H)-ylsulfonyl)phenyl]-5-(hydroxymethyl)quinazoline-2,4(1H,3H)-dione] | 96.7% |
| N#Cc1sc(S(=O)(=O)N2CCCCc3ccccc32)cc1-n1c(=O)[nH]c2ccccc2c1=O [Example 42, 3-(2,4-Dioxo-1,4-dihydroquinazolin-3(2H)-yl)-5-(2,3,4,5-tetrahydro-1H-1-benzazepin-1-ylsulfonyl)thiophene-2-carbonitrile] | 77.4% |
| CN(C(=O)c1ccc(Cl)c(-n2c(=O)[nH]c3cccc(CO)c3c2=O)c1)c1ccccn1 [Example 46(1), 4-Chloro-3-[5-(hydroxymethyl)-2,4-dioxo-1,4-dihydroquinazolin-3(2H)-yl]-N-methyl-N-pyridin-2-ylbenzamide] | 98.2% |
| O=c1[nH]c2cccc(CO)c2c(=O)n1-c1cc(S(=O)(=O)N2CCCCc3ccccc32)sc1Cl [Example 47, 3-[2-Chloro-5-(2,3,4,5-tetrahydro-1H-1-benzazepin-1-ylsulfonyl)-3-thienyl]-5-(hydroxymethyl)quinazoline-2,4(1H,3H)-dione] | 94.8% |
| CN(C(=O)c1cc(-n2c(=O)[nH]c3cccc(CO)c3c2=O)c(Cl)s1)c1ccccc1Cl [Example 73(1), 5-Chloro-N-(2-chlorophenyl)-4-[5-(hydroxymethyl)-2,4-dioxo-1,4-dihydroquinazolin-3(2H)-yl]-N-methylthiophene-2-carboxamide] | 91.5% |
| CN(C(=O)c1cc(-n2c(=O)[nH]c3cccc(CO)c3c2=O)c(Cl)s1)c1cccc(Cl)c1 [Example 73(2), 5-Chloro-N-(3-chlorophenyl)-4-[5-(hydroxymethyl)-2,4-dioxo-1,4-dihydroquinazolin-3(2H)-yl]-N-methylthiophene-2-carboxamide] | 93.8% |
| Cc1ccccc1N(C)C(=O)c1cc(-n2c(=O)[nH]c3cccc(CO)c3c2=O)c(Cl)s1 [Example 73(4), 5-Chloro-4-[5-(hydroxymethyl)-2,4-dioxo-1,4-dihydroquinazolin-3(2H)-yl]-N-methyl-N-(2-methylphenyl)thiophene-2-carboxamide] | 82.2% |
| Cc1cccc(N(C)C(=O)c2cc(-n3c(=O)[nH]c4cccc(CO)c4c3=O)c(Cl)s2)c1 [Example 73(5), 5-Chloro-4-[5-(hydroxymethyl)-2,4-dioxo-1,4-dihydroquinazolin-3(2H)-yl]-N-methyl-N-(3-methylphenyl)thiophene-2-carboxamide] | 95.6% |
| CN(C(=O)c1cc(-n2c(=O)[nH]c3cccc(CO)c3c2=O)c(Cl)s1)C1CCCCC1 [Example 73, 5-Chloro-N-cyclohexyl-4-[5-(hydroxymethyl)-2,4-dioxo-1,4-dihydroquinazolin-3(2H)-yl]-N-methylthiophene-2-carboxamide] | 79% |
| NC(=O)c1cccc2[nH]c(=O)n(-c3cc(S(=O)(=O)N4CCCc5ccccc54)ccc3Cl)c(=O)c12 [Example 85, 3-[2-Chloro-5-(3,4-dihydroquinolin-1(2H)-ylsulfonyl)phenyl]-2,4-dioxo-1,2,3,4-tetrahydroquinazoline-5-carboxamide] | 94% |
| CC(C)CN(C)C(=O)c1cc(-n2c(=O)[nH]c3cccc(CO)c3c2=O)c(Cl)s1 [Example 89, 5-Chloro-4-[5-(hydroxymethyl)-2,4-dioxo-1,4-dihydroquinazolin-3(2H)-yl]-N-isobutyl-N-methylthiophene-2-carboxamide] | 76.2% |
| CC(C)(O)c1cccc2[nH]c(=O)n(-c3cc(S(=O)(=O)N4CCCc5ccccc54)ccc3Cl)c(=O)c12 [Example 100(1), 3-[2-Chloro-5-(3,4-dihydroquinolin-1(2H)-ylsulfonyl)phenyl]-5-(1-hydroxy-1-methylethyl)quinazoline-2,4(1H,3H)-dione] | 99.9% |
